In publication PMC10336128, “In vitro efficacy of different PEGylation designs on cathelicidin-like peptide with high antibacterial and antifungal activity” (Scientific Reports, 2023):
Where two headings read alike, the source gives them in different places. No end group written: not given here.

Assays:
[1] = test system: S. aureus ATCC 25923; assay: microbe, parasite or virus in culture; type: cell-based, Staphylococcus aureus
Procedure: (§1) Staphylococcus aureus (S. aureus ATCC 25923), Escherichia coli (E. coli ATCC 25922), Pseudomonas aeruginosa (P. aeruginosa ATCC 27853), Candida albicans (C. albicans ATCC 10231), methicillin-resistant S. aureus (MRSA, ATCC 33591) and vancomycin-resistant Enteroccus faecium (VRE-faecium, ATCC BAA-2316) were grown in MHA at 37 °C, overnight. A colony was then selected and transferred to MHB. Each bacterial solution in the MHB was adjusted to 0.5 McFarland with OD600 value between 0.08 and 0.1 using UV–Vis spectrophotometer (NanoDrop™ One/OneC Microvolume, Thermo Scientific). Afterward, 0.5 McFarland bacteria cultures were diluted in MHB at a ratio of 1:100. The peptide/conjugate concentration was quantified using a UV–Vis spectrophotometer at 214 nm. Serial dilutions of peptide and conjugates (1024–0.5 µg/mL) were prepared in MHB with a total volume of 95 µL in a round-bottom 96-well plate. Of the prepared bacterial suspensions, 5 µL was added into sample dilutions in each prepared well. Ampicillin (GeneMark) was used as a positive control and bacterial solution alone was used as a negative control. All 96-well plates were incubated overnight at 37 °C, and all samples were prepared in triplicate. Then, samples were measured at 600 nm using a microplate reader (Gen5 Synergy HT BioTek, USA)[31].

[2] = test system: C. albicans ATCC 10231; assay: microbe, parasite or virus in culture; type: cell-based, Candida albicans
Procedure: as §1

[3] = test system: VRE-faecium ATCC BAA-2316; assay: organism not typed; type: cell-based, vancomycin-resistant Enteroccus faecium
Procedure: as §1

[4] = test system: P. aeruginosa ATCC 27853; assay: microbe, parasite or virus in culture; type: cell-based, Pseudomonas aeruginosa
Procedure: as §1

[5] = test system: MRSA ATCC 33591; assay: microbe, parasite or virus in culture; type: cell-based, methicillin-resistant S. aureus
Procedure: as §1

[6] = test system: E. coli ATCC 25922; assay: microbe, parasite or virus in culture; type: cell-based, Escherichia coli
Procedure: as §1

[7] = MTT cytotoxicity assay; type: cell-based; details: for CC50 at 24 h: human, HaCaT keratinocyte cells; for IC50 at 24 h: mouse
Procedure: Human skin keratinocyte (HaCaT, HEKa, PCS-200-011™, ATCC) and mouse embryonic fibroblast (3T3, CRL-1658™, ATCC) cells were counted to 5 × 10^4 cells/well in 100 µL of DMEM containing 10% FBS, and 1% Pen/Strep antibiotics were placed in a flat-bottom 96-well plate and incubated in 5% CO2 at 37 °C. After 24 h, the medium on the attached cells was discarded. Serial peptide/conjugate dilutions (1024–0.5 µg/mL) prepared in complete DMEM (100 µL of total volume) in triplicate were added to the cell-seeded plates and incubated in 5% CO2 at 37 °C for 24 h. Cytotoxicity was determined using the 3-(4, 5-dimethylthiazol-2-yl)-2, 5-diphenyltetrazolium bromide assay kit (MTT, Cell Proliferation Kit, Roche) following the kit procedure and measured at 550 nm and 690 nm using a microplate reader. Cytotoxicity was calculated according to the cell control samples in complete DMEM.

[8] = test system: human erythrocytes; assay: Cell-associated hemolytic activity assay (with S. aureus ATCC 25923); type: cell-based; details: human erythrocytes plus S. aureus ATCC 25923 (5 µL of 1.5 × 10^6 CFU/mL), tris-saline, 37 °C, read at 414 nm, three replicates
Procedure: (§2) 300 µL of fresh human blood (Acibadem Mehmet Ali Aydinlar University, Istanbul, Turkey) was suspended in 20 mL of sterile tris-saline (150 mM NaCl, 10 mM Tris, pH 7.2) solution and centrifuged 3 times at 1500 rpm for 5 min. Pellet was dissolved with 100 mL of tris-saline and 100 µL blood mix was added into each well of a round-bottom 96-well plate. Serial peptide/conjugate dilutions (1024–0.5 µg/mL) prepared in tris-saline (100 µL of total volume) in triplicate were added on top of the blood mix. 10% DMSO prepared in Triton X-100 treated with blood mix used as a positive control, and the blood mix itself was used as a negative control. The samples were kept on separate round-bottom 96-well plates at 37 °C for 30 min and 1 h, respectively, to examine two different conditions. After incubations, the 96-well plates were centrifuged at 1500 rpm for 10 min. The supernatants were then transferred into a new round-bottom 96-well plate for measurement at 414 nm using a microplate reader. The lysis percentage of the peptide/conjugate was calculated using Eq. (1) as follows:1 Hemolysis%=Sample414nm-Negativecontrol414nm/Positivecontrol414nm-Negativecontrol414nm×100
S. aureus ATCC 25923 bacterial solution in MHB was prepared as in the minimum inhibitory concentration (MIC) experiment. […]

[9] = test system: plasma proteases; type: in vitro ADME, human
Procedure: To separate human plasma, EDTA-treated fresh human blood from a healthy donor (Acibadem Mehmet Ali Aydinlar University, Istanbul, Turkey) was centrifuged at 1500 rpm for 5 min, and the supernatant was collected. The peptide and conjugates were mixed with human plasma to a final concentration of 0.1 mg/mL (1.7 µL, 2048 µg/mL sample completed with plasma) and incubated at 37 °C, 1500 rpm in a shaker. Aliquots were collected after 0 h, 6 h, and 24 h incubation and stored at – 20 °C[32]. 5 µL protease inhibitor was added onto 35 µL aliquots.
S. aureus ATCC 25923 was cultured in MHA overnight at 37 °C. A colony was then selected and transferred to MHB. The bacterial solution was adjusted to 0.5 McFarland with OD600 value between 0.08 and 0.1 using UV–Vis spectrophotometer and diluted to a 1:200 ratio in MHB. 5 µL of the bacterial suspension was added into serial dilutions of aliquots prepared in MHB (40 µL of total volume) in a round-bottom 96-well plate and incubated overnight at 37 °C. Afterward, 96-well plates were measured at 600 nm using a microplate reader. All samples were prepared in triplicate.

[10] = test system: human erythrocytes; assay: Hemolytic activity assay; type: cell-based
Procedure: as §2

CC1(C)S[C@@H]2[C@H](NC(=O)[C@H](N)c3ccccc3)C(=O)N2[C@H]1C(=O)O [Ampicillin, reference compound]
MIC ([1]; Staphylococcus aureus, ATCC25923, S. aureus ATCC 25923, serial dilution in MHB, 96-well, overnight 37 °C, OD 600 nm, triplicate, same results in all replicates, mass of whole conjugate, read-out: Minimum Inhibitory Concentration): 8 µg/mL
MIC ([2]; Candida albicans, ATCC10231, C. albicans ATCC 10231, serial dilution in MHB, 96-well, overnight 37 °C, OD 600 nm, triplicate, same results in all replicates, mass of whole conjugate, read-out: Minimum Inhibitory Concentration): 16 µg/mL
MIC ([3]; VRE-faecium ATCC BAA-2316, serial dilution in MHB, 96-well, overnight 37 °C, OD 600 nm, triplicate, same results in all replicates, mass of whole conjugate, read-out: Minimum Inhibitory Concentration): 16 µg/mL
MIC ([4]; Pseudomonas aeruginosa, ATCC27853, P. aeruginosa ATCC 27853, serial dilution in MHB, 96-well, overnight 37 °C, OD 600 nm, triplicate, same results in all replicates, mass of whole conjugate, read-out: Minimum Inhibitory Concentration): 256 µg/mL
MIC ([5]; Staphylococcus aureus, MRSA ATCC 33591, serial dilution in MHB, 96-well, overnight 37 °C, OD 600 nm, triplicate, same results in all replicates, mass of whole conjugate, read-out: Minimum Inhibitory Concentration): 32 µg/mL
MIC ([6]; Escherichia coli, ATCC25922, E. coli ATCC 25922, serial dilution in MHB, 96-well, overnight 37 °C, OD 600 nm, triplicate, same results in all replicates, mass of whole conjugate, read-out: Minimum Inhibitory Concentration): 32 µg/mL

GIGKFLHSAKKFGKAFVGEIMNS [Mag-2, reference compound]
CC50 at 24 h ([7]; HaCaT cells, MTT, 24 h, 37 °C, DMEM 10% FBS, three replicates, maximum concentration tested 512 µg/mL, mass of whole conjugate, read-out: inhibitory concentration (IC50), cytotoxicity): 258 µg/mL
IC50 at 24 h ([7]; 3T3 cells, MTT, 24 h, 37 °C, DMEM 10% FBS, three replicates, mass of whole conjugate, read-out: inhibitory concentration (IC50), cytotoxicity): 153 µg/mL

RLLRLLLRLLR-NH2 [TN6]
HC50, 60 min with S. aureus ATCC 25923 [8]: hemotoxic effect at all doses
Minimum Inhibitory Concentration ([1]; ATCC 25923): 1 µg/mL
MIC after plasma proteases, 0 h ([9]; 0 h): 2.56 µg/mL
MIC after plasma proteases, 6 h ([9]; 6 h): 2.56 µg/mL
MIC after plasma proteases, 24 h ([9]; 24 h): 5.12 µg/mL
HC50 (dose killing 50% of the red blood cells), 60 min ([10]; human erythrocytes in tris-saline pH 7.2, 60 min, 37 °C, without bacteria, read at 414 nm, three replicates): hemotoxic effect at all doses
HC50 (dose killing 50% of the red blood cells), 60 min ([10]; pH 7.2): toxic even at 1 µg/mL
hemolysis, 30 min ([10]; pH 7.2): well above the toxic dose (HC50)
Minimum Inhibitory Concentration ([2]; ATCC 10231): 1 µg/mL
Minimum Inhibitory Concentration ([3]; ATCC BAA-2316): 1.56 µg/mL
Minimum Inhibitory Concentration ([4]; ATCC 27853): 4 µg/mL
Minimum Inhibitory Concentration ([5]; ATCC 33591): 0.78 µg/mL
CC50 at 24 h [7]: 161 µg/mL
IC50 at 24 h [7]: 14.6 µg/mL
Minimum Inhibitory Concentration ([6]; ATCC 25922): 1 µg/mL
